Results on 2 molecules are retold here after patent US11339158B2, “Crystalline form of valbenazine ditosylate, processes for preparation thereof and use thereof” (Crystal Pharmaceutical (Suzhou) Co., Ltd., priority 2017, dated 2022).

Format in all cases: physicochemical
Series [1] can be described thus: Mechanical stability (tableting at 15 kN, XRPD). Particulars: compressed at 15 kN, held 1 minute. On the procedure: About 0.1 g of Form A was added into a die, compressed at 15 kN, and held for 1 minute. And then the pressure was released and the sample in the die was taken out for XRPD test. […] The XRPD pattern is substantially as depicted in FIG. 9.
Series [2] is described as follows: Adhesiveness (material sticking to the punch). Particulars: for Cumulative amount (mg) sticking to the punch / Maximum amount (mg) sticking to the punch: 30 mg, φ8 mm round tooling, 10 kN, 30 s, repeated compression. How it is done: 30 mg of Form A and Form I in prior art were added into the dies of φ8 mm round tooling, compressed at 10 kN and held for 30 s. The punch was weighed and amount of material sticking to the punch was calculated. The compression was repeated several times to record the cumulative amount, maximum amount and average amount of material sticking to the punch during compression process.

Series [3] is described as follows: Kinetic solubility in FaSSIF and FeSSIF. The following applies: for solubility kinetic at 15 min / solubility kinetic at 30 min / solubility kinetic at 1 h: thermodynamic from solid, read-out: Kinetic solubility (concentration of saturated solution); for Kinetic solubility (concentration of saturated solution): listed as Prior art Form I. On the procedure:
High Performance Liquid Chromatography (HPLC) data in the present disclosure were collected from an Agilent 1260 with Diode Array Detector (DAD).
The HPLC method parameters for solubility test and dissolution tests in the present disclosure are as follows: • 1. Column: Waters XBridge C18 150×4.6 mm, 5 μm • 2. Mobile Phase: A: 0.1% TFA in H2O • B: 0.1% TFA in Acetonitrile
• 3. Flow rate: 1.0 mL/min • 4. Injection Volume: 10 μL • 5. Detection wavelength: 230 nm • 6. Column Temperature: 40° C. • 7. Diluent: Acetonitrile: H2O (v:v)=50:50
Simulated intestinal fluids, such as FaSSIF (fasted state simulated intestinal fluids) and FeSSIF (fed state simulated intestinal fluids) are biorelevant media. These media can better reflect the drug release affected by gastrointestinal environment. Solubility in such media is close to in vivo solubility.
20 mg of Form A in the present disclosure and 20 mg of prior art Form I were suspended in 1.5 mL of FaSSIF and 1.5 mL of FeSSIF to get saturated solutions. After equilibrium for 15 minutes, 30 minutes and 1 hour, concentrations of the saturated solutions (mg/mL) were measured by HPLC.

A short description of series [4]: Compressibility (tensile strength). The following applies: Φ6 mm round tooling, 80 mg, 10 kN; for Tensile strength (MPa): T=2H/πDL; for Diameter (mm) / Thickness (mm): after 24 h. How it is done: A manual tablet press was used for compression. A certain amount of Form A and prior art Form I were added into the dies of round tooling (Ensuring the isotropy of the tablet), compressed at suitable pressure, and then stored at room temperature for 24 h until complete elastic recovery. Hardness (H) was tested with Intelligent Tablet Hardness Tester. Diameter (D) and thickness (L) were tested with caliper. Tensile strength of the powder was calculated with the following formula: T=2H/πDL. Under a certain force, the greater the tensile strength, the better the compressibility.

Series [5] in a line: Hygroscopicity (Chinese Pharmacopoeia 2015, general notice 9103). The following applies: for Percentage gain (weight gain, hygroscopicity): 25±1° C., relative humidity 80%±2%, 24 hours. How it is done:
The hygroscopicity experiment was conducted according to general notice 9103 drug hygroscopicity test guidelines in 2015 edition of Chinese Pharmacopoeia. The methods are listed as follows: • 1. A dry weighing bottle with a stopper (outer diameter is 50 mm and the height is 15 mm) was placed in a suitable desiccator at constant temperature of 25±1° C. (saturated solution of ammonium chloride or ammonium sulfate was placed in the lower compartment) or the a man-made climate chamber (the temperature is set as 25°±C. 1° C. and the relative humidity is 80%±2%) the day before the test. The weight is accurately weighed (m1). • 2. A suitable amount of the sample was spread into the weighing bottle. The thickness of the sample is generally about 1 mm, and the weight is accurately weighed (m2). • 3. The weighing bottle was kept open and placed under the same constant temperature and humidity mentioned above for 24 hours as well as the stopper. • 4. T The stopper was put on the weighing bottle, and then the weighing bottle with stopper was accurately weighed (m3).
The hygroscopicity of Form A in the present disclosure and Form I in prior art was tested.

Series [6] is described as follows: Crystalline form after formulation process (XRPD of capsule). The following applies: Form A in capsule. How it is done: The preparation process is described in Table 8.
The crystalline form of Form A in capsule was tested by XRPD. […] The XRPD pattern is substantially as depicted in FIG. 10.

The nature of series [7]: Stability of Form A drug substance (XRPD and HPLC). The following applies: for Change in solid form: XRPD; for Change in purity %: HPLC. How it is done: Four samples of Form A in the present disclosure was stored under different conditions of 25° C./60% RH in open and closed dishes for 3 months, 40° C./75% RH in closed dish for 3 months and 60° C./75% RH in closed dish for 1 week. Crystalline form and chemical impurity were checked by XRPD and HPLC, respectively.

A short description of series [8]: Flowability (compressibility index / Carr Index). The following applies: for Carr Index: c=(ρf−ρ0)/ρf; for Flowability: criteria of ICH Q4B Annex 13. How it is done:
Compressibility index or Carr Index is usually utilized to evaluate the flowability of powder and granules during the drug product process. Compressibility index test method is as follows: a certain amount of powder was added into a measuring cylinder and bulk volume was recorded. Then the powder was tapped to make it in the tightest state and the tapped volume was recorded. The bulk density (ρ0), tapped density (ρf) were calculated and compressibility index was calculated according to c=(ρf−ρ0)/ρf.

Setting [9] is: 25° C./60% RH in open dish, 3 months.
The mark [10] stands for this setting: 40° C./75% RH in closed dish, 3 months.
Setting [11] is: 60° C./75% RH in closed dish, 1 week.

≈ marks a conversion by molar mass, not a printed value. Entries after “also recorded” stand apart in the source; their conditions may differ. Like-named read-outs stand apart in the source and are kept apart here.

Regarding `COc1cc2c(cc1OC)[C@H]1C[C@@H](OC(=O)[C@@H](N)C(C)C)[C@H](CC(C)C)CN1CC2` [Form A, (S)-2-amino-3-methyl-butyric acid (2R,3R,11bR)-3-isobutyl-9,10-dimethoxy-1,3,4,6,7,11b-hexahydro-2H-pyrido[2,1-a]isoquinolin-2-yl ester], in series [1], the “Form change after tableting” value is recorded as “doesn't change; also recorded: no form change is observed”. Further, the “Cumulative amount (mg) sticking to the punch” value in series [2] came out at 0.06 mg. Also, the “Maximum amount (mg) sticking to the punch” value in series [2] was 0.17 mg. Besides, the solubility kinetic at 15 min in series [3] (FaSSIF, FaSSIF, 15 minutes) is 31.4 mg/mL (≈ 75.1 mM); in series [3] (FeSSIF, FeSSIF, 15 minutes), 41.9 mg/mL (≈ 100 mM). Besides, the solubility kinetic at 30 min was found to be 31.3 mg/mL (≈ 74.8 mM) in series [3] (FaSSIF, FaSSIF, 30 minutes) and 41.7 mg/mL (≈ 99.5 mM) in series [3] (FeSSIF, FeSSIF, 30 minutes). The solubility kinetic at 1 h turned out to be 31.8 mg/mL (≈ 76 mM) in series [3] (FaSSIF, FaSSIF, 1 hour) and 41.3 mg/mL (≈ 98.6 mM) in series [3] (FeSSIF, FeSSIF, 1 hour). Also, the “Solubility of Form A relative to prior art Form I” value in series [3] (FeSSIF) is reported as 1.23 times. Besides, in series [4], the “Tensile strength (MPa)” value was 1.36 MPa. The “Diameter (mm)” value in series [4] was 6.11 mm. Besides, the “Thickness (mm)” value in series [4] is 2.33 mm. Besides, the “Hygroscopicity relative to prior art form” value in series [5] (Chinese Pharmacopoeia hygroscopicity test) is given as 3/5. Also, the “Form change of Form A after formulation process” value in series [6] is recorded as “no form change was observed; also recorded: doesn't change”. Besides, the “Time physically and chemically stable” value in series [7] (25° C./60% RH in closed dish), in series [7] (25° C./60% RH in open dish) and in series [7] (40° C./75% RH in closed dish) was “at least 3 months” in each case. The “Change in solid form” value in series [7] (25° C./60% RH in closed dish, 3 months) is “doesn't change; also recorded: No form change”; in series [7] (setting [9]), “doesn't change; also recorded: No form change”; in series [7] (setting [10]), “doesn't change; also recorded: No form change”; in series [7] (setting [11]), “doesn't change; also recorded: No form change”. In addition, the figures for the “Change in purity %” value in series [7] (setting [9]), in series [7] (setting [10]) and in series [7] (setting [11]) were 0.03%, 0.09% and 0.08%, respectively. Also, the Time stable result in series [7] (60° C./75% RH in closed dish) is on record as “at least 1 week”. Also, the “Bulk density” value in series [8] came to 0.179 g/mL. The “Tap density” value in series [8] was 0.209 g/mL. In series [8], the “Carr Index” value is on record as 14%. For the same molecule, the Flowability entry in series [8] is “Good (11-15)”.
`COc1cc2c(cc1OC)[C@H]1C[C@@H](OC(=O)[C@@H](N)C(C)C)[C@H](CC(C)C)CN1CC2` [Form I, (S)-2-amino-3-methyl-butyric acid (2R,3R,11bR)-3-isobutyl-9,10-dimethoxy-1,3,4,6,7,11b-hexahydro-2H-pyrido[2,1-a]isoquinolin-2-yl ester, reference compound]: in series [2], the “Maximum amount sticking to the punch, Form I relative to Form A” value is “more than 3 times”; the “Cumulative amount (mg) sticking to the punch” value is given as 0.21 mg; the “Maximum amount (mg) sticking to the punch” value is given as 7.58 mg. For the same molecule, in series [3] (FaSSIF, 15 minutes), the “Kinetic solubility (concentration of saturated solution)” value (from here on “Kinetic solubility”) is 30.637 mg/mL. In addition, in series [3] (FaSSIF, 30 minutes), the “Kinetic solubility” value was 30.189 mg/mL. Besides, in series [3] (FaSSIF, 1 hour), the “Kinetic solubility” value is 31.010 mg/mL. Moreover, the “Kinetic solubility” value in series [3] (FeSSIF, 15 minutes) turned out to be 34.054 mg/mL. Also, in series [3] (FeSSIF, 30 minutes), the “Kinetic solubility” value is given as 34.628 mg/mL. For the same molecule, the “Kinetic solubility” value in series [3] (FeSSIF, 1 hour) was 35.012 mg/mL. Also, in series [4], the “Tensile strength (MPa)” value is reported as 0.86 MPa, the “Diameter (mm)” value turned out to be 6.04 mm and the “Thickness (mm)” value amounted to 2.30 mm. The “Percentage gain (weight gain, hygroscopicity)” value in series [5] (listed as Form I in prior art) turned out to be 0.40%. For the same molecule, the “Percentage gain (weight gain, hygroscopicity)” value in series [5] (listed as prior art Form I) is given as 0.40%. Also, in series [8], the “Bulk density” value worked out at 0.144 g/mL, the “Tap density” value amounted to 0.174 g/mL, the “Carr Index” value was found to be 17% and the Flowability entry was “Fair (16-20)”.
